One data set addresses NR1/NR2A NMDA receptor (Homo sapiens, UniProt Q05586+Q12879). Briefly: Inhibition of NMDA receptor NR1/NR2A function. The format is cell-based.
In another data set the test system is L1210 cells. The experiment in a line: Cytotoxicity in L1210 cells. The format is cell-based. As to conditions: Mus musculus; L1210 cells, no DFMO; read-out: L1210 IC50.
The subject of another data set is L1210 cells + DFMO. The experiment in a line: Cytotoxicity in L1210 cells pretreated with DFMO. The format is cell-based, mouse. Conditions: for IC50: Mus musculus, L1210 cells pretreated with DFMO, read-out: L1210 + DFMO IC50; for L1210/(L1210 + DFMO) IC50 ratio: fold more toxic in the presence of DFMO.
A further data set has as its system polyamine transporter. Briefly: Ki, affinity for the polyamine transporter in L1210 cells. Format: binding, mouse. Here is the method:
Biological Evaluation. Three cell lines were chosen for bioassay. L1210 (mouse leukemia) cells were selected for comparison with the published IC50 and Ki values determined for a variety of polyamine substrates. In this regard both Ki and IC50 values were measured in this line for comparison purposes. Chinese hamster ovary (CHO) cells were chosen along with a mutant cell line (CHO-MG) in order to comment on polyamine transporter affinity and cell selectivity. The CHO-MG cell line is polyamine-transport deficient and was isolated after chronic selection for growth resistance to methylglyoxalbis (guanylhydrazone). For the purposes of this study, the CHO-MG cell line represents cells with limited polyamine transport activity. In contrast, the parent CHO cell line illustrates cell types with active polyamine transport. Comparison of efficacy in these two lines provided an important screen to detect conjugate delivery via the polyamine transporter, PAT. For example, a conjugate with high utilization of the transporter would be very toxic to CHO cells, but less so to CHO-MG cells. Therefore, IC50 determination in these two CHO lines provided a relative ranking of delivery via the PAT.

The subject of the next data set is CHO-MG cells. The experiment in a line: Cytotoxicity in CHO-MG cells (polyamine-transport deficient). Format: cell-based, Chinese hamster. As to conditions: Cricetulus griseus, polyamine-transport deficient line, read-out: CHO-MG IC50.
The test system of the next data set is CHO cells. Briefly: Cytotoxicity in CHO cells (active polyamine transporter). The format is cell-based, Chinese hamster. Conditions: for IC50: Cricetulus griseus, CHO, active polyamine transporter, read-out: CHO IC50; for CHO-MG/CHO IC50 ratio: selectivity for cells with active polyamine transporter.
Data set [1] can be described thus: Metabolic de-alkylation to homospermidine in treated cells. As to conditions: cells treated with compound. The format is in vitro ADME. The text has this: N-Alkylpolyamines can be broken down into their de-alkylated components by cellular metabolic pathways. For example, a N-alkyl-4,4-triamine ([…]2, where R is alkyl) can be converted into homospermidine, H2N(CH2)4NH(CH2)4NH2.

SMILES strings stand for the structures. Structures can show the parent of a compound that is named as a salt.

Chain of NR1/NR2A NMDA receptor (Q12879 23-1464, other chains not shown): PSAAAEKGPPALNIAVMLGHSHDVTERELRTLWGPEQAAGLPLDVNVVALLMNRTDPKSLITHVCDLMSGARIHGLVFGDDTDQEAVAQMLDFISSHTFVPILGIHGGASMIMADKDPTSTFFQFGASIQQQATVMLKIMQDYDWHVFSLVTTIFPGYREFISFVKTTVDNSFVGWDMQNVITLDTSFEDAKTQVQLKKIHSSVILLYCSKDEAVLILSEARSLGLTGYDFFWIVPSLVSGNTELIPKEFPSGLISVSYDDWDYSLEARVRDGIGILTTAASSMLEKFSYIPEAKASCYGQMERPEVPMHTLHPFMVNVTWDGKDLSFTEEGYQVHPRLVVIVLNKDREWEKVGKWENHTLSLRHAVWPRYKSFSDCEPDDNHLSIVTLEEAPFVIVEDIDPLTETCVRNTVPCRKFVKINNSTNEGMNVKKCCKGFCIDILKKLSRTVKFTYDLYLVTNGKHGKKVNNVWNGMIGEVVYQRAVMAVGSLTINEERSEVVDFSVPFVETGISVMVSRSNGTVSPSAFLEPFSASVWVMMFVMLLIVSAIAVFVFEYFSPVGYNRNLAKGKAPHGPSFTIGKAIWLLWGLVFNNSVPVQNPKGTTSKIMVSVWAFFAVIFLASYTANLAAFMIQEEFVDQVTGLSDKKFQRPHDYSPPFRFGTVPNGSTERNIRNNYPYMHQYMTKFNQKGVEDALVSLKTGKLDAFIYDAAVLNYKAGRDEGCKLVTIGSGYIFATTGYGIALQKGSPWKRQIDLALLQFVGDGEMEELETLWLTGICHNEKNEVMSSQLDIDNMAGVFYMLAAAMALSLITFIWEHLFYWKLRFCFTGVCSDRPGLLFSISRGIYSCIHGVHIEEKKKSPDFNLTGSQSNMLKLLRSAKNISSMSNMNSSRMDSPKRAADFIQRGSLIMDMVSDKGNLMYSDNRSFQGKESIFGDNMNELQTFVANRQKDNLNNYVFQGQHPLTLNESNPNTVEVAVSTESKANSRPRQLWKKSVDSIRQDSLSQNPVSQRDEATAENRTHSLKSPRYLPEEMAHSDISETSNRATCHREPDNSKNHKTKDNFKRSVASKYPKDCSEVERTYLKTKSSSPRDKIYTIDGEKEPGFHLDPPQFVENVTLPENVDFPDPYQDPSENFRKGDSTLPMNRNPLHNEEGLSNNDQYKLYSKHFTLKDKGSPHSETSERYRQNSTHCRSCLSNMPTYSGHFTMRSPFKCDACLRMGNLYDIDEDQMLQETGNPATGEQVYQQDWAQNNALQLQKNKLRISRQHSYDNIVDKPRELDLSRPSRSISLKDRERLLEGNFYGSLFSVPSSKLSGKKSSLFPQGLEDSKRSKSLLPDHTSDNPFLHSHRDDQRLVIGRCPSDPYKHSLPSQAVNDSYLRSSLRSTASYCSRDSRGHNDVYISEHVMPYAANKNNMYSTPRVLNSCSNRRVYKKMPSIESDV

As to `c1ccc2cc3ccccc3cc2c1` [Anthracene], on NR1/NR2A NMDA receptor, the “IC50 for NR1/NR2A” value was “no effect” and the “NMDA receptor (NR1A/NR2A) function at the highest dose” value is reported as “greater than 85%”.

Turning to `Cl.Cl.Cl.NCCCCN(CCCCN)Cc1c2ccccc2cc2ccccc12` [Compound 8e, N-(4-Amino-butyl)-N-anthracen-9-ylmethyl-butane-1,4-diamine, trihydrochloride], the half-maximal inhibitory concentration (IC50) in the data set on L1210 cells came out at 0.3 µM; in the data set on L1210 cells + DFMO, 0.15 µM; in the data set on CHO-MG cells, 66.7 µM; with CHO cells, 0.45 µM. Further, affinity in the data set with polyamine transporter was put at a Ki of 1.8 µM. Further, the “CHO-MG/CHO IC50 ratio” value in the data set on CHO cells (trihydrochloride) is on record as 148. The “formation of homospermidine in treated cells (de-alkylation)” value in data set [1] is listed as “did not form homospermidine”.

As to `Cl.Cl.NCCCCCCCCNCc1c2ccccc2cc2ccccc12` [Compound 32, N^1-Anthracen-9-ylmethyl-octane-1,8-diamine Dihydrochloride], the IC50 is 3 µM in the data set on L1210 cells, 4.6 µM in the data set with L1210 cells + DFMO, 4.9 µM in the data set with CHO-MG cells and 4.9 µM in the data set with CHO cells. Besides, in the data set on L1210 cells + DFMO, the “L1210/(L1210 + DFMO) IC50 ratio” value is on record as 0.7. The inhibitory constant (Ki) with polyamine transporter was found to be 13.3 µM. Moreover, the “CHO-MG/CHO IC50 ratio” value in the data set on CHO cells amounted to 1.

Regarding `Cl.Cl.NCCOCCOCCNCc1c2ccccc2cc2ccccc12` [Compound 33, 2-(2-{2-[(Anthracen-9-ylmethyl)-amino]-ethoxy}-ethoxy)-ethylamine Dihydrochloride], the IC50 in the data set with L1210 cells came to 11.3 µM; in the data set with L1210 cells + DFMO, 17 µM; in the data set with CHO-MG cells it was 15.9 µM; with CHO cells, 12.6 µM. For the same compound, the “L1210/(L1210 + DFMO) IC50 ratio” value in the data set with L1210 cells + DFMO is on record as 0.7. Further, the Ki in the data set on polyamine transporter was found to be 90 µM. For the same compound, the “CHO-MG/CHO IC50 ratio” value in the data set with CHO cells came to 1.3.

Consider `Cl.Cl.NCCCCNCc1c2ccccc2cc2ccccc12` [Compound 34, N^1-Anthracen-9-ylmethyl-butane-1,4-diamine Dihydrochloride], for which the IC50 in the data set with L1210 cells is 6.3 µM; with L1210 cells + DFMO, 9.78 µM; in the data set with CHO-MG cells, 7.6 µM; with CHO cells, 7.7 µM. In addition, in the data set with L1210 cells + DFMO, the “L1210/(L1210 + DFMO) IC50 ratio” value is given as 0.7. The compound further returned a Ki in the data set with polyamine transporter of 32.2 µM. For the same compound, the “CHO-MG/CHO IC50 ratio” value in the data set with CHO cells was found to be 1.

In the case of `CCCCNCc1c2ccccc2cc2ccccc12` [Compound 35, N^1-Anthracen-9-ylmethyl-butylamine Monohydrochloride], the IC50 in the data set on L1210 cells was found to be 14.6 µM; in the data set with L1210 cells + DFMO, 21.9 µM; in the data set with CHO-MG cells, 11.2 µM; in the data set with CHO cells, 10.5 µM. The “L1210/(L1210 + DFMO) IC50 ratio” value in the data set with L1210 cells + DFMO was determined as 0.7. Besides, the Ki in the data set on polyamine transporter was determined as 62.3 µM. The “CHO-MG/CHO IC50 ratio” value in the data set on CHO cells was 1.1.

In the case of `NCCCNCCCCNCCCN` [Spermine], half-maximal inhibition against NR1/NR2A NMDA receptor (IC50) was put at 519 µM.

What is called IC50 is the concentration that gives 50% inhibition. One may read the Ki as the dissociation constant of the complex between target and ligand, obtained from inhibition or displacement. High values mean a looser hold on the target, low ones a stronger hold on the target.

For the origin of these results see US7728040B1, “Polyamine conjugates as selective NMDA inhibitors and anti-cancer drugs” (University of Central Florids Research Foundation, Inc., priority 2002, dated 2010).
